Source: ChEMBL document CHEMBL3739354, “Nitrofuranyl Methyl Piperazines as New Anti-TB Agents: Identification, Validation, Medicinal Chemistry, and PK Studies” (ACS Med Chem Lett, 2015)
Values after ≈ are worked out from the molar mass of the structure shown.

Legend:
[1] = tested on: Mycobacterium tuberculosis; test: microbe, parasite or virus in culture; conditions: 168 h
[2] = tested on: Mycobacterium tuberculosis; test: microbe, parasite or virus in culture; conditions: 168 h; remark: listed apart in the source

SMILES	MIC90 [1]	MIC90 [2]
O=[N+]([O-])c1ccc(CN2CCN(c3cccc(C(F)(F)F)c3)CC2)o1	5.63 µM (≈ 2 µg/mL)	–
O=[N+]([O-])c1ccc(CN2CCN(c3ccccc3)CC2)o1	13.9 µM (≈ 4 µg/mL)	–
CC(C)(C)c1ccc(N2CCN(Cc3ccc([N+](=O)[O-])o3)CC2)cc1	1.32 µM (≈ 0.453 µg/mL)	> 25.2 µM
O=[N+]([O-])c1ccc(CN2CCN(c3ccccc3F)CC2)o1	13.1 µM (≈ 4 µg/mL)	–
COc1c(N2CCNC(C)C2)c(F)cc2c(=O)c(C(=O)O)cn(C3CC3)c12 (stereo not given) [GATIFLOXACIN]	2.66 µM (≈ 0.999 µg/mL)	1.33 µM (≈ 0.499 µg/mL)
O=[N+]([O-])c1ccc(S(=O)(=O)N2CCN(Cc3ccc([N+](=O)[O-])o3)CC2)cc1	0.63 µM (≈ 0.25 µg/mL)	4.19 µM (≈ 1.66 µg/mL)
Cc1ccc(S(=O)(=O)N2CCN(Cc3ccc([N+](=O)[O-])o3)CC2)cc1	0.68 µM (≈ 0.248 µg/mL)	14.6 µM (≈ 5.33 µg/mL)
O=[N+]([O-])c1ccc(CN2CCN(S(=O)(=O)c3ccccc3)CC2)o1	2.13 µM (≈ 0.748 µg/mL)	> 22.7 µM
CC(C)(C)OC(=O)N1CCN(Cc2ccc([N+](=O)[O-])o2)CC1	0.32 µM (≈ 0.0996 µg/mL)	0.12 µM (≈ 0.0374 µg/mL)
O=[N+]([O-])c1ccc(CN2CCN(c3ccc(Cl)cc3)CC2)o1	0.072 µM (≈ 0.0232 µg/mL)	0.029 µM (≈ 0.00933 µg/mL)
COc1cccc(N2CCN(Cc3ccc([N+](=O)[O-])o3)CC2)c1	0.37 µM (≈ 0.117 µg/mL)	0.09 µM (≈ 0.0286 µg/mL)
O=[N+]([O-])c1ccc(CN2CCN(c3ccc(N4CCOCC4)cc3)CC2)o1	0.08 µM (≈ 0.0298 µg/mL)	0.08 µM (≈ 0.0298 µg/mL)
O=[N+]([O-])c1ccc(CN2CCN(c3ccc(F)cc3)CC2)o1	6.55 µM (≈ 2 µg/mL)	–
O=[N+]([O-])c1ccc(CN2CCN(c3cccc(Cl)c3)CC2)o1	0.37 µM (≈ 0.119 µg/mL)	–
Cc1cccc(N2CCN(Cc3ccc([N+](=O)[O-])o3)CC2)c1C	25.3 µM (≈ 7.98 µg/mL)	–
O=[N+]([O-])c1ccc(CN2CCN(S(=O)(=O)c3ccc(F)cc3)CC2)o1	1.35 µM (≈ 0.499 µg/mL)	1 µM (≈ 0.369 µg/mL)
N#Cc1cccc(N2CCN(Cc3ccc([N+](=O)[O-])o3)CC2)c1	0.19 µM (≈ 0.0593 µg/mL)	0.06 µM (≈ 0.0187 µg/mL)
CO[C@H]1/C=C/O[C@@]2(C)Oc3c(C)c(O)c4c(O)c(c(/C=N/N5CCN(C)CC5)c(O)c4c3C2=O)NC(=O)/C(C)=C\C=C\[C@H](C)[C@H](O)[C@@H](C)[C@@H](O)[C@@H](C)[C@H](OC(C)=O)[C@@H]1C [RIFAMPIN]	311 µM (≈ 256 µg/mL)	156 µM (≈ 128 µg/mL)
